This is an account of results in patent publication US9623046B2, “Amphiphilic Janus-dendrimers” (The Trustees Of The University Of Pennsylvania, priority 2009, dated 2017).

The conditions of data set [1]: polymersomes and lipids (liposomes), comparison; cited from earlier work.
The target in data set [2] is Melittin (Apis mellifera, UniProt P01501). The following applies: Melittin 63 μL, 300 μM into 2 mL suspension.
Data set [3] relates to human umbilical vein endothelial cells (HUVECs). Description: Cell viability, CellTiter-Blue assay. Format: cell-based. The settings on record: CellTiter-Blue, 1, 2 and 4 h, compared to control. As for the experimental part:
Since endothelial cells are the first point of contact for intravenous drug formulations, the toxicity of the dendrosomes was evaluated in vitro on human umbilical vein endothelial cells (HUVECs). HUVECs were cultured in EGM Endothelial Growth Media (LONZA) supplemented with bovine brain extract (BBE) with heparin, h-EGF, hydrocortisone, gentamicin, amphotericin B (GA-1000), and fetal bovine serum (FBS). Cells were maintained in plastic culture flasks at 37° C. in a humidified atmosphere containing 5% CO2 and were further subcultured when the flasks were 70% to 90% confluent. The passage number of the cells for the HUVECs in vitro studies was 5-8. The investigation of toxicity of dendrosomes and viability of the cells was assessed fluorometrically by determining the number of viable cells present in multiwell plates. Cell viability was determined using the indicator dye resazurin, which is reduced by viable cells to a highly fluorescent form resorufin according to Scheme S17. […] The CellTiter-Blue Cell Viability Assay was obtained from Promega.
HUVECs were plated at a density of 3,200 cells per well (10,000 cells/cm^2) in 96 well tissue culture plates and allowed to adhere overnight. Culture media was removed from the wells and replaced with 250 μL of either: 100% media, 94% media/6% PBS buffer, 87.5% media/12.5% PBS buffer, 75% media/25% PBS buffer, 100% PBS buffer, and various concentrations of sterile dendrosomes and polymersomes ranging from 0.25 mg to 0.0625 mg in the three concentrations of media/PBS, and maintained at 37° C. in a humidified atmosphere of 5% CO2. The dendrosomes and polymersomes were prepared by film the hydration method as described in section S5.1 and extruded 25 times through 100 nm polycarbonate membrane. Dendrosomes and polymersomes were sterilized by exposing them for […] min to UV irradiation. […] The fluorescence intensity at 590 nm emanating from the wells when excited at 560 nm was then determined using a TECAN Inifinite2000 plate reader.

The nature of data set [4]: Dynamic light scattering of dendrosomes formed by ethanol injection (size, polydispersity). Format: physicochemical. On the procedure:
Dynamic light scattering measurements (DLS) were performed with a Malvern Instruments particle sizer (Zetasizer® Nano S, Malvern Instruments, UK).
Small unilamellar dendrosomes of <200 nm size were obtained by fast injection of 100 μL of ethanol (THF, acetone, dioxane, acetonitrile or DMSO for the solvent dependence studies) solution containing 10 mg of Janus-dendrimer dissolved in 1 mL of solvent into various volumes of milippore water (0.5 mL-5 mL) giving final Janus-dendrimer concentrations of 0.1-2 mg/mL. Dendrosomes obtained via injection method were used without further manipulation to study the influence of concentration, solvent, temperature and time on size and polydispersity by dynamic light scattering (DLS) as well as for the characterization of dendrosome morphologies via cryogenic transmission electron microscopy (cryo-TEM).
Dendrosomes were formed according to the general method discussed herein at final concentrations from 0.5-20 mg/mL. DLS measurements were carried out immediately following injection and repeated after 60 min. […] Monomodal distributions were obtained from 0.5-7 mg/mL and bimodal distributions from 10-20 mg/mL. […] At concentrations over […], multimodal size distributions and increased flocculation in time was observed.
Dendrosomes were formed according to the general method discussed herein at final concentrations of 0.5 mg/mL aqueous solution.

The nature of data set [5]: Micropipette aspiration of giant unilamellar dendrosomes (mechanical properties). Format: physicochemical. As for the experimental part:
The elastic properties of dendrosome membranes were determined by micropipette aspiration following an analogous procedure described previously (Needham, Biophys. J. 58, 997-1009 (1990)). Giant unilamelar (˜[…] diameter) dendrosomes were prepared by Teflon film hydration as described herein and dispersed into iso-osmotic ultrapure water. Glass micropipettes with inner diameter from ˜3 μm to ˜10 μm were filled with iso-osmotic ultrapure water and connected to an aspiration station mounted on the side of a Zeiss inverted microscope, equipped with a manometer. The pipettes were used to manipulate the dendrosomes and to apply well-defined stress to the wall by inducing suction tension on their membranes.
The micropipette suction pressure is controlled in the range of microatmospheres and tenths of atmospheres (0.1 N/m^2 to 10000 N/m^2). The tension results in deformation and consequently provides direct measurements of the elastic moduli, which characterizes the membrane area expansion and bending, together with other parameter that characterize the tensile failure of the vesicle membrane according to the equations (1) and (2): Ka=Δτ/Δα (1) Es=Ka(αc)^2/2 (2) were Ka=elastic area expansion modulus; Δτ=fractional tension; τs=membrane tension at failure; Δα=fractional increase in membrane area; αc=critical areal strain-fractional increase in membrane area at failure, and Es=energy stored at failure Results are presented in the Table below.

A short description of data set [6]: Miscibility of Janus-dendrimers with phospholipids (microscopy, DSC). Format: physicochemical. The following applies: 1:1 ratio, film hydration.
Where [7] appears, read: concentrations of 0.5-2 mg/mL, unimodal distributions.

Like-named read-outs stand apart in the source and are kept apart here.

Melittin, sequence (P01501 44-69 limits assumed): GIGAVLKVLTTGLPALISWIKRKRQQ

As to `CCCCCCCCCCCCCC(=O)OC[C@H](COP(=O)([O-])OCC[N+](C)(C)C)OC(=O)CCCCCCCCCCCCC` [DMPC], the “Ka (elastic area expansion modulus)” value in data set [1] was 234 mN/m.

In the case of `CCCCCCCC/C=C\CCCCCCCC(=O)O[C@H](COC(=O)CCCCCCCCCCCCCCCCC)COP(=O)([O-])OCC[N+](C)(C)C` [SOPC, 1-Stearoyl-2-Oleoyl-Sn-Glycero-3-Phosphatidylcholine, reference compound], the “CD signal after Melittin addition” value in data set [2] is “showed CD signal”.

“(3,4)12G1-PE-(3,4,5)-3EO-G1-(OCH3)6 [Dendrosome 1]”: in data set [3], the “cell viability / toxicity” value is listed as “excellent biocompatibility”.

Turning to “(3,4)12G1-PE-BMPA-G2-(OH)8 [(3,4)12G1-PE-BMPA-(OH)8]”, in data set [4] (setting [7]), the PDI was 0.07-0.2 and the sizes is reported as 111-175 nm. Further, in data set [5], the “Critical αc (critical areal strain)” value stood at 0.04, the “Energy stored at failure” value is recorded as 0.42 mJ/m^2, the “Ka (elastic area expansion modulus)” value was found to be 961 mN/m and the “Lysis Tension τs” value stood at 20.4 mN/m.

Consider (3,4,5)12G1-PE-(3,4,5)-3EO-G1-(OH)6, for which, in data set [5], the “Critical αc (critical areal strain)” value worked out at 0.04, the “Energy stored at failure” value turned out to be 0.27 mJ/m^2, the “Ka (elastic area expansion modulus)” value stood at 267.5 mN/m and the “Lysis Tension τs” value was determined as 12.7 mN/m. In addition, the “cell viability / toxicity” value in data set [3] is listed as “excellent biocompatibility”.

Consider “(3,4,5)12G1-PE-BMPA-G2-(OH)8 [(3,4,5)12G1-PE-BMPA-(OH)8]”, for which, in data set [5], the “Critical αc (critical areal strain)” value is given as 0.06, the “Energy stored at failure” value worked out at 0.11 mJ/m^2, the “Ka (elastic area expansion modulus)” value was 42.44 mN/m and the “Lysis Tension τs” value worked out at 0.88 mN/m.

In the case of (3,5)12G1-PE-(3,4)-3EO-G1-(OH)4, in data set [5], the “Critical αc (critical areal strain)” value is recorded as 0.06, the “Energy stored at failure” value was 0.73 mJ/m^2, the “Ka (elastic area expansion modulus)” value stood at 582.5 mN/m and the “Lysis Tension τs” value came out at 15.11 mN/m.

As for “(3,5)12G1-PE-(3,4,5)-3EO-G1-(OCH3)6 [Dendrosome 2]”, the “cell viability / toxicity” value in data set [3] was “excellent biocompatibility”.

Regarding “(3,5)12G1-PE-BMPA-G2-(OH)8 [(3,5)12G1-PE-BMPA-(OH)8]”, the “CD signal after Melittin addition” value in data set [2] is “showed CD signal”. Besides, in data set [4] (concentration 0.5 mg/mL), the Z-average size was 94 nm and the polydispersity was 0.04. Further, in data set [4] (concentration 10 mg/mL), the Z-average size came to 330 nm and the polydispersity was 0.17. In addition, in data set [4] (concentration of 20 mg/mL), the PDI was 0.4 and the sizes was found to be 1004 nm. For the same compound, the sizes in data set [4] (concentrations of 0.5-10 mg/mL) is reported as 94-330 nm. For the same compound, in data set [5], the “Critical αc (critical areal strain)” value worked out at 0.03, the “Energy stored at failure” value worked out at 0.69 mJ/m^2, the “Ka (elastic area expansion modulus)” value was 976 mN/m and the “Lysis Tension τs” value came to 15.5 mN/m. Also, the “miscibility with SOPC” value in data set [6] was “confirmed by DSC”.

For the compound DAPC, in data set [1], the “Critical αc (critical areal strain)” value is 0.04, the “Ka (elastic area expansion modulus)” value is 57 mN/m and the “Lysis Tension τs” value is recorded as 2.3 mN/m.
